Literature values as cited in PMC7365463, “Oxfendazole mediates macrofilaricidal efficacy against the filarial nematode Litomosoides sigmodontis in vivo and inhibits Onchocerca spec. motility in vitro” (PLoS Neglected Tropical Diseases, 2020).
Read-outs that look alike come from different tables or passages of the source.

Tests used:
Acanthocheilonema viteae = system: Acanthocheilonema viteae; parameters: method as in Denham 1980 (Ref. 6); settings: 80L3, jirds, SC 100mg/kg 5 cons. days, ref Denham 1980 (Ref. 6), cited from earlier work
Brugia pahangi = system: Brugia pahangi; parameters: method as in de Burbure 1986 (Ref. 9); settings: 200L3 (SC), Mastomys, food 56-82mg/kg, 7 days p.i., necropsy 177 days p.t., ref de Burbure 1986 (Ref. 9), cited from earlier work
Onchocerca lupi = system: Onchocerca lupi; parameters: method as in PMID 29377880; settings: Onchocerca lupi-infected dogs; cited from earlier work
AMES bacterial assay = settings: in vitro; cited from earlier work
[1] = parameters: method as in earlier work; settings: dogs; cited from earlier work

| SMILES | Reduction of worm burden (Acanthocheilonema viteae; 6 to 10 days p.i., necropsy 73-75 days p.t.) | Reduction of worm burden (Acanthocheilonema viteae; 42-46 days p.i., necropsy 39-40 days p.t.) | Reduction of worm burden (Brugia pahangi; 7 days ad.lib.) | Reduction of worm burden (Brugia pahangi; 14 days ad. lib.) | dermal microfilariae numbers (Onchocerca lupi) | toxicity in AMES bacterial assay (AMES bacterial assay) | cardiovascular effects [1] |
| --- | --- | --- | --- | --- | --- | --- | --- |
| COC(=O)Nc1nc2cc(C(=O)c3ccc(F)cc3)ccc2[nH]1 [flubendazole] | 100% | 100% | 100% | 100% | – | – | – |
| COC(=O)Nc1nc2ccc([S+]([O-])c3ccccc3)cc2[nH]1 (stereo not shown) [oxfendazole] | – | – | – | – | no significant decrease in dermal microfilariae numbers | did not exhibit toxicity | did not raise safety concerns |
